This passage reports logD results from the SangsterLogP compilation.

The data set is described as follows: method code SF, from DOI: 10.1080/10826079508010421. The settings on record: pH 11.0.

Regarding `Cc1ccccc1OCC1CN=C(N)O1` (stereo not given), the logD worked out at 1.69.

Consider `NC1=NCC(COc2ccc(N3CCOCC3)cc2)O1` (stereo not given), for which the logD came out at 0.6.

With `NC1=NCC(COc2ccccc2)O1` (stereo not given), the log distribution coefficient (logD) was found to be 1.27.

The compound `COc1ccccc1OCC1CN=C(N)O1` (stereo not given) showed a pH-dependent lipophilicity (logD) of 0.85.

With `CCOc1ccccc1OCC1CN=C(N)O1` (stereo not given), the log distribution coefficient (logD) is 1.24.

In the case of `NC1=NCC(COc2ccc(Cl)cc2)O1` (stereo not given), the logD turned out to be 2.

Consider `COc1ccc(OCC2CN=C(N)O2)cc1` (stereo not given), for which the logD worked out at 1.26.

Consider `NC1=NCC(COc2ccc([N+](=O)[O-])cc2)O1` (stereo not given), for which the logD worked out at 1.17.

For `Cc1ccc(OCC2CN=C(N)O2)cc1` (stereo not given), the logD came to 1.79.

Compound `NC1=NCC(COc2ccccc2Cl)O1` (stereo not given) registered a logD of 1.77.
